Test results published in the kinase profiling compilation of Christmann-Franck et al. (2016).

What was measured:
Assay in all cases: radiometric filter-binding kinase assay, Kinase HotSpot
Conditions in all cases: compound 0.5 µM; ATP 10 µM
[1] = target: MERTK (human) (UniProt Q12866)
[2] = target: ZAP70 (human) (UniProt P43403)
[3] = target: TSSK2 (human) (UniProt Q96PF2)
[4] = target: GSK3B (human) (UniProt P49841)
[5] = target: TAOK2 (human) (UniProt Q9UL54)
[6] = target: MST4 (human) (UniProt Q9P289)
[7] = target: IGF1R (human) (UniProt P08069)
[8] = target: EPHB2 (human) (UniProt P29323)
[9] = target: MAPK13 (human) (UniProt O15264)
[10] = target: MAP4K5 (human) (UniProt Q9Y4K4)
[11] = target: PRKCZ (human) (UniProt Q05513)
[12] = target: BTK (human) (UniProt Q06187)
[13] = target: RET (human) (UniProt P07949)
[14] = target: RPS6KA6 KD1 KD2 (human) (UniProt Q9UK32)
[15] = target: PTK2 (human) (UniProt Q05397)
[16] = target: PLK3 (human) (UniProt Q9H4B4)
[17] = target: DYRK4 (human) (UniProt Q9NR20)
[18] = target: PRKCD (human) (UniProt Q05655)
[19] = target: PDGFRB (human) (UniProt P09619)
[20] = target: IKBKB (human) (UniProt O14920)
[21] = target: TGFBR1 (human) (UniProt P36897)
[22] = target: MAP3K2 (human) (UniProt Q9Y2U5)
[23] = target: MARK4 (human) (UniProt Q96L34)
[24] = target: RIPK2 (human) (UniProt O43353)
[25] = target: CLK1 (human) (UniProt P49759)
[26] = target: PAK2 (human) (UniProt Q13177)
[27] = target: CAMK1G (human) (UniProt Q96NX5)
[28] = target: LCK (human) (UniProt P06239)
[29] = target: LIMK1 (human) (UniProt P53667)
[30] = target: MINK1 (human) (UniProt Q8N4C8)
[31] = target: PRKX (human) (UniProt P51817)
[32] = target: AURKC (human) (UniProt Q9UQB9)
[33] = target: DSTYK (human) (UniProt Q6XUX3)
[34] = target: MAP3K7 TAB1 (human) (UniProt O43318+Q15750)
[35] = target: STK11 (human) (UniProt Q15831)
[36] = target: CDC42BPB (human) (UniProt Q9Y5S2)
[37] = target: TXK (human) (UniProt P42681)
[38] = target: MAP3K3 (human) (UniProt Q99759)
[39] = target: MAPKAPK5 (human) (UniProt Q8IW41)
[40] = target: RPS6KA5 KD2 (human) (UniProt O75582)
[41] = target: FRK (human) (UniProt P42685)
[42] = target: PDPK1 (human) (UniProt O15530)

MINK1 (human), sequence (Q8N4C8 whole entry, looked up): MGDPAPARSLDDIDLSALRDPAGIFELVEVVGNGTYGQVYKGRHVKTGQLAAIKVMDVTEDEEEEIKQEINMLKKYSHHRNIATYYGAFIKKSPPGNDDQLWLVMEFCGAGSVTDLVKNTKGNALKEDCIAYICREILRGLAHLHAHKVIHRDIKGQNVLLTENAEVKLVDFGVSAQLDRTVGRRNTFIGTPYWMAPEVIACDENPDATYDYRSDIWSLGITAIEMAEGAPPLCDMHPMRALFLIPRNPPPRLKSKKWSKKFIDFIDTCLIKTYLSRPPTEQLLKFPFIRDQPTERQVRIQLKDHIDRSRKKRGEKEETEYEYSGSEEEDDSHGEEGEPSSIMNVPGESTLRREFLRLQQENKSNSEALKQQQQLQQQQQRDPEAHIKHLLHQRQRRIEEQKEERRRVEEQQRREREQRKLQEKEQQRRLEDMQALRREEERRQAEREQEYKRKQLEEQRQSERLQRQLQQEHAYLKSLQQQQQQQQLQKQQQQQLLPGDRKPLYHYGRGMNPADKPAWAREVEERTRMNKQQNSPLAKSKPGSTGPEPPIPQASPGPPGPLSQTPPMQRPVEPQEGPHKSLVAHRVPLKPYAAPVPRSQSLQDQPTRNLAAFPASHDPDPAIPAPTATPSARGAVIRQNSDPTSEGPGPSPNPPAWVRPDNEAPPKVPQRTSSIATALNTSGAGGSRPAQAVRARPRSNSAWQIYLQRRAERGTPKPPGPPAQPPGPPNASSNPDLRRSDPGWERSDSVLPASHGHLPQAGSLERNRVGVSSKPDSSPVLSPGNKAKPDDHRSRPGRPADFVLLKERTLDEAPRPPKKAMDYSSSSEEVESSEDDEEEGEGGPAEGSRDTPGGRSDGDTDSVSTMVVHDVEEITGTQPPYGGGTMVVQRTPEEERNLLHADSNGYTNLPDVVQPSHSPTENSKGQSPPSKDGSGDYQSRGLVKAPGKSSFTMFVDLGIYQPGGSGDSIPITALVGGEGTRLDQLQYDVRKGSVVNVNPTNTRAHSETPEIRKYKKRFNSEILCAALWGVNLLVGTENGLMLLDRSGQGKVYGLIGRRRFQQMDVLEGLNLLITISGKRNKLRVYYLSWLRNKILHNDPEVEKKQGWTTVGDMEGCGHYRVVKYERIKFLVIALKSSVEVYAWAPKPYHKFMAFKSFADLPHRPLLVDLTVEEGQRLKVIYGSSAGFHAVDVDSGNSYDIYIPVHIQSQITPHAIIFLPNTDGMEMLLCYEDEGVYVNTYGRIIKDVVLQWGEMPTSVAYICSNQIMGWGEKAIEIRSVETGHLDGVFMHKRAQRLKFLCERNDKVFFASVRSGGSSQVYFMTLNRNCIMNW
FRK (human), sequence (P42685 whole entry, looked up): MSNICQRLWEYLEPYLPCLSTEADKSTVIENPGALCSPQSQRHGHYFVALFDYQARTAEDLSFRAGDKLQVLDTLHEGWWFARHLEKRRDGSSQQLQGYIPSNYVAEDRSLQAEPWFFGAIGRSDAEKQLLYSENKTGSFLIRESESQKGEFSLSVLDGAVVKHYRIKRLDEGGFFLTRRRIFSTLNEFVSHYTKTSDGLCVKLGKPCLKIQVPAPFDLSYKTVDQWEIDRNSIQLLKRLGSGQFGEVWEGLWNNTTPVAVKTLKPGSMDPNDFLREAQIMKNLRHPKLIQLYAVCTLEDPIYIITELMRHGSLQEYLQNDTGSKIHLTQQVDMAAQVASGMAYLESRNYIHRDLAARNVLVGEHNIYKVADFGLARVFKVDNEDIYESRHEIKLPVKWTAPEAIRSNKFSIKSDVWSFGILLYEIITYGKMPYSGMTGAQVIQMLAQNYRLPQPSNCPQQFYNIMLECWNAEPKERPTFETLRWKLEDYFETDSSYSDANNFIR
AURKC (human), sequence (Q9UQB9 whole entry, looked up): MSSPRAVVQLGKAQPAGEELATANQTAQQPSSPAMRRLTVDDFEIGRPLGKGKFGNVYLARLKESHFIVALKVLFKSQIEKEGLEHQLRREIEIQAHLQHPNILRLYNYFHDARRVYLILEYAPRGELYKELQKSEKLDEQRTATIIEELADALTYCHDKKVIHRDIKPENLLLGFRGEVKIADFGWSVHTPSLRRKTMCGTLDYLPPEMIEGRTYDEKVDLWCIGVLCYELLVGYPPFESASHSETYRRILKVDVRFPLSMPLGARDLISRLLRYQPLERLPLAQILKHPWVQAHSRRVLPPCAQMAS
BTK (human), sequence (Q06187 whole entry, looked up): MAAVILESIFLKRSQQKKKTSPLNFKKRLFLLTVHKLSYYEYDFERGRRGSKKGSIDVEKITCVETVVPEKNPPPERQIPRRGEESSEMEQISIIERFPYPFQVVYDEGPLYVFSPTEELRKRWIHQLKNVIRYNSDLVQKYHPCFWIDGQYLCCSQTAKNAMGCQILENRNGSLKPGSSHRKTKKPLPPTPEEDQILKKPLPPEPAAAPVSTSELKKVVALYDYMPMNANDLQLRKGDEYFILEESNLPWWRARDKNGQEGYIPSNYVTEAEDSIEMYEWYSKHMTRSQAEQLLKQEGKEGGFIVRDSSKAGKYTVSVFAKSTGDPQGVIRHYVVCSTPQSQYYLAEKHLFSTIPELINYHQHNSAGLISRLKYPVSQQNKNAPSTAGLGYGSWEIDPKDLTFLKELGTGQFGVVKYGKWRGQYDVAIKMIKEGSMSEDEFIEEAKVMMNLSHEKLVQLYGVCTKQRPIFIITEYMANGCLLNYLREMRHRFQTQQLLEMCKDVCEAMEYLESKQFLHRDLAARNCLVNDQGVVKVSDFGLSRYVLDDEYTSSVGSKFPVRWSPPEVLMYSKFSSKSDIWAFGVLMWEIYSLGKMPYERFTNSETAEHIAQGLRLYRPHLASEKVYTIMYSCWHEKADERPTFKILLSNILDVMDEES
MAP3K2 (human), sequence (Q9Y2U5 whole entry, looked up): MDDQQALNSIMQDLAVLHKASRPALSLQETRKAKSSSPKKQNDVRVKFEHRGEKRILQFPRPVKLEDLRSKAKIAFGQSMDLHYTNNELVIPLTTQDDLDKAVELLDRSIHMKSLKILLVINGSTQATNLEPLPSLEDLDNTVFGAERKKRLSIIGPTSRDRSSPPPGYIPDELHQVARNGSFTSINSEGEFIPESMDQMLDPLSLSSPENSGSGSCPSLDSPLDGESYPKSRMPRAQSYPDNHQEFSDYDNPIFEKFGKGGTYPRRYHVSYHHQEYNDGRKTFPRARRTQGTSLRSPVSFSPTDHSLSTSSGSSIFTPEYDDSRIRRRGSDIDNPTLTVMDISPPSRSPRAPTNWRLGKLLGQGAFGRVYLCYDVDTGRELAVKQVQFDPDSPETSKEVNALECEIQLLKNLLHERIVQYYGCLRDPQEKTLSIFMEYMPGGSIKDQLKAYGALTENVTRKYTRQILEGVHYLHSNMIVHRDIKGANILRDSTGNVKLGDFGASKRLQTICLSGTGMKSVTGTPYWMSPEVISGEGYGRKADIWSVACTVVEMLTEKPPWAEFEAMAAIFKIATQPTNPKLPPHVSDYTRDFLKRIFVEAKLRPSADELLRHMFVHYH
TXK (human), sequence (P42681 whole entry, looked up): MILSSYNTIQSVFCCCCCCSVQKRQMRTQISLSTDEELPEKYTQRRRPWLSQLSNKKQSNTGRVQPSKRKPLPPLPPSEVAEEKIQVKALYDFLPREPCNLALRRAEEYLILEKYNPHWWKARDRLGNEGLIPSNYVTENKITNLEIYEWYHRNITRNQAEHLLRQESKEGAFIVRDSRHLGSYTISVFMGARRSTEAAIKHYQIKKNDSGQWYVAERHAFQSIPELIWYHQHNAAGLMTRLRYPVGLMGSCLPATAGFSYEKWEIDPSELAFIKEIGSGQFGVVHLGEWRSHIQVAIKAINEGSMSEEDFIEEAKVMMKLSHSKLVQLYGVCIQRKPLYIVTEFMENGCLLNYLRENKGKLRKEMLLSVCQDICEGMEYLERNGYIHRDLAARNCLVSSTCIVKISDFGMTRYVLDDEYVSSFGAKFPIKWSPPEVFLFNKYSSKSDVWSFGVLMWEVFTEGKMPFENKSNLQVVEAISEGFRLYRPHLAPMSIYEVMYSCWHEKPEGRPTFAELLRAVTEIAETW
ZAP70 (human), sequence (P43403 whole entry, looked up): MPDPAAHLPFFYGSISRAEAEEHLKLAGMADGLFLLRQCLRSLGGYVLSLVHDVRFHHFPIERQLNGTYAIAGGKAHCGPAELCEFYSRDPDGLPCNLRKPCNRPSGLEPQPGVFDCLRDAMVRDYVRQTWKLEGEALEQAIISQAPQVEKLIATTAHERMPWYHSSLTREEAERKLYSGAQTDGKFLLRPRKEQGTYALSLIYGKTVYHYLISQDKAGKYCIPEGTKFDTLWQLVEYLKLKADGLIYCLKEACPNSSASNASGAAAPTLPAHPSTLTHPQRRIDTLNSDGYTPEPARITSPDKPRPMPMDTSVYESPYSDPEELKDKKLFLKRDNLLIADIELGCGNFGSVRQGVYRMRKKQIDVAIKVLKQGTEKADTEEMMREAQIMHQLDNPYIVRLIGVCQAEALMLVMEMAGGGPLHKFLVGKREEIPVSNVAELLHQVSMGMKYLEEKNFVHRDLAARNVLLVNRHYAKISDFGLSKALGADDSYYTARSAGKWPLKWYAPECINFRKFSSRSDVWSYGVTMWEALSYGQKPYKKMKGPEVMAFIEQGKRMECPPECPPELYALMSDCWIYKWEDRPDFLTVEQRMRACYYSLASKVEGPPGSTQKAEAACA
MAPK13 (human), sequence (O15264 whole entry, looked up): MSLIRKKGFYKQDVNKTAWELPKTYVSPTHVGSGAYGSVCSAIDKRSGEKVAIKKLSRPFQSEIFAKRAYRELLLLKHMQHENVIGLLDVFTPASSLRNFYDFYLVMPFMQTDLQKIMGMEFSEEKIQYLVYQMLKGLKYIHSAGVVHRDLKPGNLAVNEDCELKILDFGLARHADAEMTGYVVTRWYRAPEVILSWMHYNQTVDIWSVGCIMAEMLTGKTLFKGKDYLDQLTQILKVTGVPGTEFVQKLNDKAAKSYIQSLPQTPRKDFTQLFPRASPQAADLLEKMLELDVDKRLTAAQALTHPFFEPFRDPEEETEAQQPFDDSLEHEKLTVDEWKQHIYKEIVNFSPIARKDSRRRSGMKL

SMILES: CN(C)S(=O)(=O)c1ccc2c(c1)/C(=C/c1cc3c([nH]1)CCCC3)C(=O)N2
- residual activity [1]: 20.9%
- residual activity [2]: 90%
- residual activity [3]: 91.8%
- residual activity [4]: 95.6%
- residual activity [5]: 89.6%
- residual activity [6]: 45.6%
- residual activity [7]: 89.5%
- residual activity [8]: 98.4%
- residual activity [9]: 103%
- residual activity [10]: 3.08%
- residual activity [11]: 98.9%
- residual activity [12]: 97.4%
- residual activity [13]: 6.29%
- residual activity [14]: 67.4%
- residual activity [15]: 33.1%
- residual activity [16]: 94.5%
- residual activity [17]: 98.2%
- residual activity [18]: 95.5%
- residual activity [19]: 96.5%
- residual activity [20]: 107%
- residual activity [21]: 95.9%
- residual activity [22]: 37%
- residual activity [23]: 51.5%
- residual activity [24]: 88.9%
- residual activity [25]: 82.6%
- residual activity [26]: 92.5%
- residual activity [27]: 97.1%
- residual activity [28]: 34.7%
- residual activity [29]: 60.7%
- residual activity [30]: 83.8%
- residual activity [31]: 98.1%
- residual activity [32]: 33.8%
- residual activity [33]: 96%
- residual activity [34]: 89%
- residual activity [35]: 90.4%
- residual activity [36]: 101%
- residual activity [37]: 96%
- residual activity [38]: 48.7%
- residual activity [39]: 99.8%
- residual activity [40]: 106%
- residual activity [41]: 86%

SMILES: Cn1c2ccccc2c2c3c(c4c5ccccc5n(CCC#N)c4c21)CNC3=O
- residual activity [1]: 59.9%
- residual activity [2]: 77.7%
- residual activity [3]: 74.3%
- residual activity [4]: 38.9%
- residual activity [5]: 13.3%
- residual activity [6]: 89.8%
- residual activity [7]: 98.3%
- residual activity [8]: 77.7%
- residual activity [9]: 104%
- residual activity [10]: 4.18%
- residual activity [11]: 87%
- residual activity [12]: 22%
- residual activity [13]: 0.516%
- residual activity [14]: 4.2%
- residual activity [15]: 77%
- residual activity [16]: 88.1%
- residual activity [17]: 95.7%
- residual activity [18]: 41.9%
- residual activity [19]: 60.6%
- residual activity [42]: 63.2%
- residual activity [20]: 90.4%
- residual activity [21]: 104%
- residual activity [22]: 2.96%
- residual activity [23]: 10.8%
- residual activity [24]: 55.1%
- residual activity [25]: 69.9%
- residual activity [26]: 91.7%
- residual activity [27]: 101%
- residual activity [29]: 45.3%
- residual activity [30]: 2.48%
- residual activity [31]: 60.1%
- residual activity [32]: 55.7%
- residual activity [33]: 9.91%
- residual activity [34]: 25.4%
- residual activity [35]: 31.8%
- residual activity [36]: 92.1%
- residual activity [37]: 6.39%
- residual activity [38]: 5.86%
- residual activity [39]: 127%
- residual activity [40]: 23.7%
- residual activity [41]: 84.7%
